Legend:
TYK2-JH2 = biological target: T1, TYK2-JH2 (Homo sapiens, UniProt P29597); experiment: TYK2-JH2 HTRF binding assay (ligand efficiency); details: calculated (Equation 1) from IC50 of the TYK-JH2 binding assay
T1 construct: TYK JH2 enzyme mix (ChemPartner: CP20210818A-BV); purchased ChemPartner CP20210818A-BV
Method: The following example describes the TYK2-JH2 HTRF binding assay used to determine the ligand efficiency of the TYK2 inhibitors.
To calculate ligand efficiency, Equation 1 is applied: […]
in which IC50 comes from the binding assay used to determine compound potency.
TYK JH2 enzyme mix (ChemPartner: CP20210818A-BV), tracer (ChemPartner: CP-0029472-051) and mAb Anti-6HIS Tb cryptate Gold (Cisbio: Cat No. 61HI2TLA) mix were prepared in assay buffer (10 mM MgCl2, 20 mM HEPES pH 7.5, 0.01% Triton X-100, 1 mM DTT). Compounds diluted in DMSO (Final Concentrations 0.1 to 0.000005 [μM]) and enzyme mix (0.5 nM Final Concentration) were added to 384 well plates, briefly centrifuged and incubated at room temperature for 10 minutes. After incubation, tracer mix (Tracer-35 nM final concentration); (MAb Anti-6HIS Tb cryptate Gold-0.5X final)) was added, briefly centrifuged then incubate at room temperature 60 minutes. After incubation, plates were read by Envision TR-FRET (Ex340/Em495/520) protocol (PerkinElmer-Envision 2104 multilabel plate reader).

[1] = Brain exposure pharmacokinetic study in C57BL/6 mice; format: in vivo, mouse; details: male C57BL/6 mice, oral gavage 5 mg/kg, plasma
Method: The brain exposure of 18 was evaluated in male C57BL/6 mice after oral gavage administration at 5 mg/kg. The formulation was 10% DMSO+40% PEG400 in saline. Mice were provided free access to food and water without fasting. Terminal sample collection of plasma and brain tissue were collected at […], 0.25, 0.5, 1, 2, and 4 hours post-dose with n=3 at each timepoint.
(§1) For both rat and mouse studies, brain tissue was washed with 3 volumes of saline prior to homogenization. Brain tissue was homogenized with 3 volumes (v/w) of phosphate buffered saline. Plasma, brain homogenate, and CSF samples (rat only) were analyzed by LC-MS/MS and the concentration of test compound at each time point was determined by linear regression.
(§2) Pharmacokinetic parameters were calculated from the plasma, brain, and CSF concentrations by non-compartmental modeling using WinNonlin 8.2.

[2] = Mouse pharmacokinetic study, oral administration; format: in vivo; details: male, mouse plasma, PO at 5 mg/kg; for half-life: read-out: Half-life t1/2; for Cmax: read-out: Maximum plasma concentration Cmax; for AUC(0-inf): read-out: Total systemic exposure AUCinf
Method: The following example describes the methods used to evaluate the pharmacokinetics of TYK2 inhibitors in vivo following dosing of a compound of the invention.
The pharmacokinetics of test compounds were evaluated in either male CD-1 mice or male C57BL/6 mice when administered by oral gavage and IV bolus injection. The animals were allowed free access to food and water before administration. The plasma samples were analyzed by LC-MS/MS and the concentration of test compound at each time point was determined by linear regression. Pharmacokinetic parameters were calculated from the plasma concentrations by non-compartmental modeling using WinNonlin 8.2.
Oral composition. To prepare a pharmaceutical composition for oral delivery, the test articles described herein were dissolved in DMSO and then mixed with necessary volume of PEG400 followed by 0.9% sterile saline or 5% dextrose in water or 5% Kolliphor HS 15 in saline to provide the final concentrations of 0.5 mg/mL or 1 mg/mL (Table 8). The resultant mixtures were suitable for oral administration.
The PK parameters measured in mouse plasma after treatment with TYK2 inhibitor compounds via PO (oral administration) at 5 mg/kg are summarized below in Tables 9-11.

[3] = Brain exposure pharmacokinetic study in Sprague Dawley rats; format: in vivo, rat; details: male Sprague Dawley rats, oral gavage 10 mg/kg, plasma, CSF
Method: The brain exposure of exemplary compounds, e.g., 1, 2, and 4 were evaluated in male Sprague Dawley rats after oral gavage administration at 10 mg/kg. The formulation was 5% DMSO+10% PEG400 in saline. Rats were fasted overnight with food returned 4 hours post-dose. CSF was collected by direct needle puncture into the cisterna magna.
as §1, §2

T1 sequence (P29597 589-875 limits assumed): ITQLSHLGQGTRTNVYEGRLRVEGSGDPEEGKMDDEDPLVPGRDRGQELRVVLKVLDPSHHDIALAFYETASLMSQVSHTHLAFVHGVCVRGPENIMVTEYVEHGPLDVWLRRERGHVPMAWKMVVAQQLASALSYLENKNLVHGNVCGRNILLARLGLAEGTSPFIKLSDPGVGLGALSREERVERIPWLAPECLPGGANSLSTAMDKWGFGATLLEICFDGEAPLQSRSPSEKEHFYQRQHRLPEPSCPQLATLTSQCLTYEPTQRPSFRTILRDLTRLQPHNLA

Row | SMILES | Ligand Efficiency (TYK2-JH2) | Brain Kpu, u [1] | half-life [2] [h] | Cmax [2] [ng/mL] | AUC(0-inf) [2] [ng·h/mL] | Brain Kpu, u [3]
1 | Cc1cccc(Nc2cc(Nc3ncccc3S(C)(=O)=O)ncn2)n1 [Compound 18, N^4-(6-methylpyridin-2-yl)-N^6-(3-(methylsulfonyl)pyridin-2-yl)pyrimidine-4,6-diamine] | ††† (†††: >0.39) | ††† (††† >0.2 u) |  |  |  | 
2 | C[C@@H](c1ccc(Nc2cc(Nc3ncccc3S(C)(=O)=O)ncn2)nc1)N1CC2(COC2)C1 [Compound 1, (S)—N^4-(5-(1-(2-oxa-6-azaspiro[3.3]heptan-6-yl)ethyl)pyridin-2-yl)-N^6-(3-(methylsulfonyl)pyridin-2-yl)pyrimidine-4,6-diamine] | ††† (†††: >0.39) |  | 1 to 1.5 | < 800 | 1000 to 2000 | †† (††0.1-0.2 u)
3 | C[C@@H](c1ccc(Nc2cc(Nc3ncc(F)cc3S(C)(=O)=O)ncn2)nc1)N1CC2(COC2)C1 [Compound 2, (S)—N^4-(5-(1-(2-oxa-6-azaspiro[3.3]heptan-6-yl)ethyl)pyridin-2-yl)-N^6-(5-fluoro-3-(methylsulfonyl)pyridin-2-yl)pyrimidine-4,6-diamine] | ††† (†††: >0.39) |  | 1 to 1.5 | > 1500 | > 2000 | † (†<0.1 u)
4 | C[C@@H](c1ccc(Nc2cc(Nc3ncccc3S(C)(=O)=O)ncn2)nc1)N(C)C [Compound 4, (S)—N^4-(5-(1-(dimethylamino)ethyl)pyridin-2-yl)-N^6-(3-(methylsulfonyl)pyridin-2-yl)pyrimidine-4,6-diamine] | ††† (†††: >0.39) |  | 1 to 1.5 | < 800 | < 1000 | ††† (††† >0.2 u)

— US20240425484A1, “INHIBITORS OF TYK2” (Atomwise Inc., priority 2023, published 2024)
